Results published in PubChem BioAssay (NCI).
Several values for one entry are separate records, joined by “and”; a condition that tells them apart may be missing. Equal entries are not always repeated.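 Exposure lasted 48 hours, with cells grown in 96-well plates and compounds tested at five concentrations. GI50 = concentration required for 50% inhibition of growth. TGI marks complete inhibition of growth.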

Legend:
Experiment in all cases: growth of human tumour cells (NCI), 48 h
786-0 renal = test system: 786-0 renal
A549 NSCLC = test system: A549 NSCLC
EKVX NSCLC = test system: EKVX NSCLC
HOP-92 NSCLC = test system: HOP-92 NSCLC
KM12 colon = test system: KM12 colon
SK-MEL-5 melanoma = test system: SK-MEL-5 melanoma
SNB-75 CNS = test system: SNB-75 CNS
U251 CNS = test system: U251 CNS
UACC-257 melanoma = test system: UACC-257 melanoma
UACC-62 melanoma = test system: UACC-62 melanoma

SMILES	TGI (786-0 renal) [µM]	TGI (A549 NSCLC) [µM]	TGI (EKVX NSCLC) [µM]	TGI (HOP-92 NSCLC)	TGI (KM12 colon) [µM]	TGI (SK-MEL-5 melanoma) [µM]	TGI (SNB-75 CNS)	TGI (U251 CNS) [µM]	TGI (UACC-257 melanoma) [µM]	TGI (UACC-62 melanoma) [µM]	GI50 (786-0 renal) [µM]	GI50 (A549 NSCLC) [µM]	GI50 (EKVX NSCLC) [µM]	GI50 (HOP-92 NSCLC)	GI50 (KM12 colon)	GI50 (SK-MEL-5 melanoma) [µM]	GI50 (SNB-75 CNS)	GI50 (U251 CNS)	GI50 (UACC-257 melanoma) [µM]	GI50 (UACC-62 melanoma)
CC(=O)O/N=C/c1ncccc1CO	> 100	> 100	> 100	> 100 µM	> 100	> 100	> 100 µM	> 100	> 100	> 100	–	–	–	–	–	–	–	–	–	–
C=CC(=O)N1CCCC(n2nc(-c3ccc(Oc4ccccc4)cc3)c3c(N)ncnc32)C1 (stereo not drawn)	16.6	26	6.65	10.5 µM	22	19.3	14.2 µM	20.4	20.5	14.6	1.86	11.9	0.164	1.57 µM	8.73 µM	6.55	3.55 µM	6.11 µM	6.82	2.36 µM
O=C1C(Br)=C[C@H]2C3C=CC(Br)(C3=O)[C@@H]12 (stereo partly drawn)	48.2	76.9	28.8	29.7 µM	24.4	27.2	92.8 µM	27.3	24.8	14.9	–	–	–	–	–	–	–	–	–	–
CN(C(=O)c1ccc(Cl)s1)C(=S)N(C)C(=O)c1ccc(Cl)s1	> 10	> 10	> 10	> 10 µM	> 10	> 10	> 10 µM	> 10	> 10	> 10	–	–	–	–	–	–	–	–	–	–
NC(CCCCNC(=O)OCc1ccccc1)C(=O)NC(CCCCNC(=O)OCc1ccccc1)C(=O)ON1C(=O)CCC1=O (stereo not drawn)	> 100	> 100	> 100	> 100 µM	> 100	> 100	> 100 µM	> 100	> 100	> 100	–	–	–	–	–	–	–	–	–	–
COc1ccc(-c2c(C3=NCCN3)nnn2-c2ccccc2)cc1	> 100	> 100	> 100	> 100 µM	> 100	> 100	> 100 µM	> 100	> 100	> 100	–	–	–	–	–	–	–	–	–	–
COC(=O)CCC/C=C\C[C@H]1C=CC(=O)/C1=C/C[C@@H](O)CCc1cccc(C(F)(F)F)c1	5.57	12.2	16.4	7.94 µM	4.23	3.2	18.9 µM	4.96	7.49	5.48	2.46	3.55	4.52	3.1 µM	1.9 µM	1.73	5.46 µM	2.06 µM	2.48	2.16 µM
O=C(Nc1ccc(Cl)cc1)Nc1ccc(Cl)c(Cl)c1	> 100	> 100	> 100	5.46 µM	13.8	3.42	> 100 µM	> 100	> 100	> 100	4.43	4.58	3.41	1.62 µM	3.31 µM	1.72	2.59 µM	3.52 µM	3.76	5.59 µM
COC1=CC23C=CC1[C@@H](c1ccccc1)C2=C(C)C(=O)N3C(=O)NC1CCCCC1 (stereo partly drawn)	32.4	79.8	> 100	47.5 µM	> 100	29.2	> 100 µM	35.4	77.4	47.6	–	–	–	–	–	–	–	–	–	–
CC(C)=CC(C(O)c1ccccc1)S(=O)(=O)c1nccn1C (stereo not drawn)	> 100	> 100	> 100	> 100 µM	> 100	> 100	> 100 µM	> 100	> 100	> 100	–	–	–	–	–	–	–	–	–	–
CC(=O)NC(CCCCNC(=O)OCc1ccccc1)C(=O)NCc1ccccc1 (stereo not drawn)	> 100	> 100	> 100	> 100 µM	> 100	> 100	> 100 µM	> 100	> 100	> 100	–	–	–	–	–	–	–	–	–	–
CCC(=O)c1cn(C)c(=O)c2ccccc12	> 100	> 100	> 100	> 100 µM	> 100	> 100	> 100 µM	> 100	> 100	> 100	–	–	–	–	–	–	–	–	–	–
COc1ccc2c(c1)C(=O)CC(N)C2 (stereo not drawn)	> 100	> 100	> 100	> 100 µM	> 100	> 100	> 100 µM	> 100	> 100	> 100	–	–	–	–	–	–	–	–	–	–
COc1cc(OC2OC(C)C(O)C(O)C2O)cc2oc(-c3ccc(O)cc3)c(CC=C(C)C)c(=O)c12 (stereo not drawn)	60	68.5	99.4	54.8 µM	31	30.9	17.5 µM	–	68.4	31.9	11.7	22.8	25.6	12.4 µM	12.2 µM	13.6	1.69 µM	–	29.6	12.8 µM
CC(=O)OCC1OC(n2c(-c3ccccc3)cc(-c3ccco3)c(C#N)c2=O)C(OC(C)=O)C(OC(C)=O)C1OC(C)=O (stereo not drawn)	> 100	> 100	> 100	21.8 µM and > 100 µM	> 100	> 100	40.9 µM and > 100 µM	> 100	> 100	> 100	–	–	–	9.2 µM and 50.8 µM	75 µM and 36.5 µM	–	13.3 µM and > 100 µM	98 µM and 17.8 µM	–	23.3 µM and 55.8 µM
Clc1nc(Oc2ccccc2)nc(-c2cn(-c3ccccc3)c3ccccc23)n1	35.6	> 67.4	46.9	20.7 µM	19.9	30.5	26.6 µM	6.36	25	26.6	18.6	27.4	14.6	4.07 µM	7.51 µM	14.3	13.7 µM	2.53 µM	9.2	13.2 µM
